Source: the supplement of paper PMC11208160

Assay: recombinant barcode read abundance after kanamycin selection (control-corrected) (log10(CPM+1)); higher = more efficient recombination; sequences stand for … in AGTGCAGAGAAAATCGGCCAGTTTTCTCTGCCTGCAGTCCGCATGCCGT…AGATTTATGCAGCGGACTGCCTTTCTCCCAAAGTGATAAACCGGACAGTATCATGGACCGGTTTTCCCGGTAATCCGTATTTGCAAGGTTGGTTTCACT; site = the 11-nt target
Protocol: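 Pooled E. coli target-specificity screen for the IS621 bridge recombinase. Each library plasmid pairs an 11-nt target (CT core) with a bridge RNA whose target-binding loop (9-nt LTG + 4-nt RTG) is reprogrammed; the rest of the 177-nt WT IS621 bridge RNA scaffold is fixed. The plasmid is co-electroporated with a WT donor plasmid; recombinase is induced with 0.1 mM IPTG and recombinants are selected on kanamycin. Recombinant barcodes are sequenced, converted to CPM, averaged over two biological replicates and corrected by the unselected control CPM. Molecule = full bridge RNA written as DNA: LTG = specificity nt 1-9, RTG = reverse complement of specificity nt 8-11, in the WT scaffold.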
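Also: IS621 recombinase and bridge RNA in Escherichia coli cells.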

| Sequence | recombinant barcode read abundance (log10) |
| --- | --- |
| GCTCAGGCTTGGGTTCTAACCTGTTGCCT (site GCTCAGCCTAG) | 0.114 |
| TTGGTCGCTTGGGTTCTAACCTGTTGCCT (site TTGGTCGCTAG) | 1.71 |
| GGGCCTACTTGGGTTCTAACCTGTTGCTT (site GGGCCTACTCA) | 0.369 |
| AGCTCCTCTTGGGTTCTAACCTGTTGCCT (site GGCTCCTCTAG) | 0.0482 |
| ACGTCGTCTTGGGTTCTAACCTGTTGCCT (site AAGTCGTCTAG) | 0.0262 |
| TGTGCGTCTTGGGTTCTAACCTGTTGCCT (site AGTGCGTCTAG) | 0.0921 |
| CAACGAGCTTGGGTTCTAACCTGTTGCCG (site CACCGAGCTCG) | 0.186 |
| GTATGATCTTGGGTTCTAACCTGTTGCCT (site GTATGATCTAG) | 1.45 |
| GATCGAGCTTGGGTTCTAACCTGTTGCCT (site GATCGAGCTAG) | 1.12 |
| CCGGCCACTTGGGTTCTAACCTGTTGCCT (site CAGGCCACTAG) | 0.359 |
| TTGGATCCTTGGGTTCTAACCTGTTGCCT (site TTGGATCCTAG) | 2.31 |
| CGGCACACTTGGGTTCTAACCTGTTGCTT (site CGGCTCACTTA) | 0.129 |
| GGGGACCCTTGGGTTCTAACCTGTTGCGC (site GGGGACCCTGC) | 3.3 |
| ATGAGAACTTGGGTTCTAACCTGTTGCCT (site ATGAGAACTCG) | 0.361 |
| TTACCCACTTGGGTTCTAACCTGTTGCCT (site TTACCCACTAG) | 3.27 |
| GCGAGCTCTTGGGTTCTAACCTGTTGCCT (site GCGCGTTCTAG) | 0.291 |
| CACGATGCTTGGGTTCTAACCTGTTGCCT (site CAGGATGCTAG) | 0.226 |
| TCCAAACCTTGGGTTCTAACCTGTTGCAG (site TCCAAACCTCT) | 0.898 |
| TACGCTCCTTGGGTTCTAACCTGTTGCCT (site TACGCTCCTAA) | 0.0709 |
| AGCCGAACTTGGGTTCTAACCTGTTGCCT (site GGCCGAACTAG) | 0.478 |
| TAACGTACTTGGGTTCTAACCTGTTGCTT (site TAACGTACTAA) | 0.641 |
| CGGAACTCTTGGGTTCTAACCTGTTGCCT (site CGGAACTCTAG) | 1.85 |

| Sequence | recombinant barcode read abundance (log10) |
| --- | --- |
| GAGAAGTCTTGGGTTCTAACCTGTTGCCT (site GAGGAGTCTAG) | 0.115 |
| CGGACGGCTTGGGTTCTAACCTGTTGCCT (site CGGACGTCTAG) | 0.271 |
| TAGAAGACTTGGGTTCTAACCTGTTGCTT (site TAGAAGACTAA) | 0.37 |
| GCCGTCTCTTGGGTTCTAACCTGTTGCCT (site GCCGTCTCTAG) | 0.135 |
| ACTGGACCTTGGGTTCTAACCTGTTGCTT (site GCTGGACCTAG) | 0.616 |
| AGCCCTCCTTGGGTTCTAACCTGTTGCTA (site AGCCCTCCTCA) | 0.449 |
| ACGAAGACTTGGGTTCTAACCTGTTGCCG (site ACGAGGACTCG) | 0.0668 |
| AATAGCTCTTGGGTTCTAACCTGTTGCCT (site AATAGCTCTAG) | 0.82 |
| CTAGCGACTTGGGTTCTAACCTGTTGCCG (site ACGCTATCTAA) | 0.102 |
| CGCCATCCTTGGGTTCTAACCTGTTGCAT (site CGCCATCCTAT) | 0.134 |
| CCTGGCACTTGGGTTCTAACCTGTTGCGA (site CCTAGCACTTC) | 1.45 |
| CCGAGAGCTTGGGTTCTAACCTGTTGCCT (site CCGAGAGCTAG) | 0.454 |
| CTTGGGCCTTGGGTTCTAACCTGTTGCCT (site CATGGGCCTAG) | 0.0436 |
| TAGACTACTTGGGTTCTAACCTGTTGCCT (site CAGACTCCTAG) | 0.055 |
| TCGGTTCCTTGGGTTCTAACCTGTTGCCT (site TCGGTTCCTAG) | 0.811 |
| GACGTGCCTTGGGTTCTAACCTGTTGCCG (site CTTAGTACTAT) | 0.11 |
| AGCCACTCTTGGGTTCTAACCTGTTGCCT (site AGCCACGCTAG) | 0.153 |
| TCGATTACTTGGGTTCTAACCTGTTGCCT (site TCGATCACTAG) | 0.269 |
| AGGCGTCCTTGGGTTCTAACCTGTTGCCC (site AGGCGTCCTCG) | 0.0817 |
| TATCCGACTTGGGTTCTAACCTGTTGCCT (site TATCCGACTCG) | 0.553 |
| CATGCTCCTTGGGTTCTAACCTGTTGCAT (site CATGCTCCTAT) | 0.194 |
| GTCGGGCCTTGGGTTCTAACCTGTTGCCT (site CTCGGGCCTAG) | 0.0668 |

| Sequence | recombinant barcode read abundance (log10) |
| --- | --- |
| GTGCGCCCTTGGGTTCTAACCTGTTGCGG (site GTGCGCCCTCC) | 1.28 |
| TACGACACTTGGGTTCTAACCTGTTGCCT (site TACGACACTAG) | 1.9 |
| ACCCTATCTTGGGTTCTAACCTGTTGCCT (site ACCCTAACTCG) | 0.0342 |
| CTAAGATCTTGGGTTCTAACCTGTTGCCT (site CAAAGATCTAG) | 0.0172 |
| GTGTATTCTTGGGTTCTAACCTGTTGCCT (site ACTGTCACTCC) | 0.0809 |
| CAAAGATCTTGGGTTCTAACCTGTTGCCT (site CAAAGATCTAG) | 0.821 |
| TACGCACCTTGGGTTCTAACCTGTTGCGA (site TACGCACCTTC) | 1.03 |
| GCCGAGCCTTGGGTTCTAACCTGTTGCCA (site TAGTGAACTGT) | 0.432 |
| AGGACTACTTGGGTTCTAACCTGTTGCCT (site AGGACTACTAG) | 1.3 |
| CATCGGACTTGGGTTCTAACCTGTTGCGA (site CATCGGACTTC) | 1.35 |
| TACCGTCCTTGGGTTCTAACCTGTTGCGG (site GCGTCCTCTAA) | 0.312 |
| AGTATATCTTGGGTTCTAACCTGTTGCCT (site AGTATATCTAG) | 0.121 |
| TCTAGATCTTGGGTTCTAACCTGTTGCCT (site TCTAGACCTAG) | 0.0764 |
| TGAGGGACTTGGGTTCTAACCTGTTGCCT (site CTCATAGCTTC) | 0.0546 |
| TGAGCTACTTGGGTTCTAACCTGTTGCAC (site TGAGCTACTGT) | 1.16 |
| TGAACTCCTTGGGTTCTAACCTGTTGCCT (site TGAACTCCTAG) | 0.122 |
| GAGTTCCCTTGGGTTCTAACCTGTTGCCC (site ATTACTTCTAA) | 0.0963 |
| CAGCACTCTTGGGTTCTAACCTGTTGCTA (site CAGGACTCTAA) | 0.201 |
| GCACTCCCTTGGGTTCTAACCTGTTGCCT (site GCCCTCCCTAG) | 0.0585 |
| CCGACTTCTTGGGTTCTAACCTGTTGCCT (site CAGACTTCTAG) | 0.219 |
| TCCCGACCTTGGGTTCTAACCTGTTGCCT (site TCCCGAGCTAG) | 0.107 |
| ATACGGACTTGGGTTCTAACCTGTTGCTA (site ATAGGGACTTA) | 0.186 |
